SMILES strings stand for the structures. pEC50: −log10 of the molar value. Converted amounts (≈) assume the structure as drawn. The source made the active and inactive calls. The calls are words filed in the database; no cut-off is given here.

One series concerns NCI-H1299. Nature of the series: Induction of apoptosis in human H1299 cells assessed as caspase activation after 48 hrs. The settings on record: NCI-H1299, 48 h. The format is functional, cell-based.
Series [1] concerns T47D. As to the kind of experiment: Induction of apoptosis in human T47D cells assessed as caspase activation after 48 hrs. The format is functional, cell-based.
The next series deals with DLD-1. Nature of the series: Induction of apoptosis in human DLD1 cells assessed as caspase activation after 48 hrs. The format is functional, cell-based. The settings on record: DLD-1, 48 h.
Series [2] concerns T47D. As to the kind of experiment: Growth inhibition of human T47D cells after 48 hrs. The format is functional.
Series [3] can be described thus: Growth inhibition of human H1299 cells after 48 hrs. The format is functional. The note with it: NCI-H1299, 48 h.
A short description of series [4]: Solubility in ethanol/cremophor EL/D5W solution. It counts as physicochemical.
The test system of another series is MX1. As to the kind of experiment: Antitumor activity against human MX1 cells xenografted in Crl:Nu/Nu-nuBR mouse assessed as inhibition of tumor growth at 20 mg/kg, iv daily once for day 1 to 5 and 8 to 12. Also noted: dose 20 mg/kg. It counts as functional, organism-based. Background: A xenograft is tissue or cells of one species grown in another, often human tumour cells in immunodeficient mice.

A further series concerns Mus musculus. Nature of the series: Toxicity in Crl:Nu/Nu-nuBR mouse assessed as decrease of body weight at 20 mg/kg, iv daily once for day 1 to 5 and 8 to 12. It counts as organism-based. Further details: dose 20 mg/kg, route intravenous; scale not given: the % may be the effect or the level left. The note with it: in vivo.
Series [5] can be described thus: Solubility in DMSO/ethanol/cremophor EL/D5W solution. It counts as physicochemical.
A short description of series [6]: Aqueous solubility in dextrose 5% in water. It counts as physicochemical.

Usually pEC50 stands for the negative decadic logarithm of the EC50, by convention in mol/L. For `CN(C)CCNc1cc(-c2noc(-c3sccc3Cl)n2)ccc1Cl`, the pEC50 in the series on NCI-H1299, in the series on T47D [1] and in the series on DLD-1 was less than 5.00 in each case.
On to `O=P(O)(O)OCc1cc(Cl)ccc1-c1noc(-c2occc2Br)n1`, for which the pEC50 in the series on NCI-H1299 and in the series with T47D [1] was less than 5.00 in each case.
The GI50 is the concentration that inhibits growth by half. Regarding `COc1cc2c(c(OC)c1OC)-c1ccc(OC)c(=O)cc1[C@@H](NC(C)=O)CC2` [COLCHICINE], the results for the GI50 (in the series with T47D [2]; in series [3]) were 0.14 µM and 0.063 µM, respectively. The pEC50 with DLD-1 is 6.74.
Turning to `Cc1cc(-c2noc(-c3sccc3Cl)n2)ccc1Cl`, the pEC50 in the series on NCI-H1299 was less than 5.00; with T47D [1], 5.77; with DLD-1, 6.23.
On to `CC[C@]1(O)C[C@@H]2CN(CCc3c([nH]c4ccccc34)[C@@](C(=O)OC)(c3cc4c(cc3OC)N(C)[C@H]3[C@@](O)(C(=O)OC)[C@H](OC(C)=O)[C@]5(CC)C=CCN6CC[C@]43[C@@H]65)C2)C1` [VINBLASTINE], for which the pEC50 is 7.09 in the series on NCI-H1299 and 6.80 in the series on DLD-1.
Usually solubility stands for the dissolved amount per volume that the medium holds. As to `Cc1cc(Cl)cnc1-c1noc(-c2occc2Br)n1`, the GI50 in the series with T47D [2] is 0.66 µM; in series [3], greater than 10 µM. For the same compound, the concentration in solution in series [4] (solubility) was 3800 µg/mL (≈ 11.2 mM). Also, the negative-log EC50 (pEC50) in the series on NCI-H1299 was less than 5.00; in the series on T47D [1], 6.03; with DLD-1 it was 5.92.
For the compound `Cc1cc(Cl)ccc1-c1noc(-c2occc2Br)n1`, the GI50 was 0.13 µM in the series on T47D [2] and greater than 10 µM in series [3]. The inhibition result with MX1 was “Active”. The pEC50 in the series on NCI-H1299 was less than 5.00; with T47D [1], 5.96; with DLD-1, 6.15. Further, in the series with Mus musculus, the Activity is given as less than 10%. In [5], this compound yielded a solubility of 4800 µg/mL (≈ 14.1 mM).
`CC(=O)O[C@H]1C(=O)[C@@]2(C)[C@H]([C@H](OC(=O)c3ccccc3)[C@]3(O)C[C@H](OC(=O)[C@H](O)[C@@H](NC(=O)c4ccccc4)c4ccccc4)C(C)=C1C3(C)C)[C@]1(OC(C)=O)CO[C@@H]1C[C@@H]2O` [PACLITAXEL]: the values for the GI50 (in the series with T47D [2]; in [3]) were 0.026 µM and 0.023 µM, respectively. For the same compound, the negative-log EC50 (pEC50) was 7.01 in the series on NCI-H1299 and 7.27 in the series on DLD-1.
In the case of `OCc1cc(Cl)ccc1-c1noc(-c2occc2Br)n1`, the GI50 is 0.5 µM in the series with T47D [2] and greater than 10 µM in series [3]. The same compound yielded a solubility in series [4] of 4000 µg/mL (≈ 11.2 mM). Also, the pEC50 is less than 5.00 in the series with NCI-H1299 and 5.54 in the series with T47D [1].
In the case of `Nc1cc(-c2noc(-c3sccc3Cl)n2)ccc1Cl`, the negative-log EC50 (pEC50) was less than 5.00 in the series on NCI-H1299, 5.62 in the series on T47D [1] and 6.24 in the series on DLD-1.
For `Clc1ccc(-c2noc(-c3sccc3Cl)n2)c(CBr)c1` the same measures were 5.07, 5.35 and 5.96.
For `Cc1cc(Cl)ccc1-c1noc(-c2sccc2Cl)n1`, in that order: less than 5.00, 6.04 and 6.42.
Take `Clc1ccc(-c2noc(-c3occc3Br)n2)c(CBr)c1`: the pEC50 in the series on NCI-H1299 is 5.64; in the series with T47D [1], 5.66.
As for `O=P([O-])([O-])OCc1cc(Cl)ccc1-c1noc(-c2occc2Br)n1.[Na+].[Na+]`, the solubility in series [6] came to 10000 µg/mL.
Turning to `Clc1ccc(-c2noc(-c3sccc3Cl)n2)cc1`, the GI50 in the series with T47D [2] was 0.19 µM; in series [3] it was greater than 10 µM. The figures for the pEC50 with NCI-H1299, in the series on T47D [1] and with DLD-1 were less than 5.00, 5.92 and 6.36, respectively.
Take `Nc1cc(Cl)ccc1-c1noc(-c2sccc2Cl)n1`: the pEC50 in the series on NCI-H1299 was less than 5.00; in the series with T47D [1] it was 5.51; in the series with DLD-1 it was 5.96.
For `CN(C)c1cc(-c2noc(-c3sccc3Cl)n2)ccc1Cl`, in that order: less than 5.00, 5.68 and 6.27.
For `Clc1ccc(-c2noc(-c3sccc3Cl)n2)cc1Cl`, in that order: less than 5.00, 5.85 and 6.43.

These data come from ChEMBL document CHEMBL1152348, “Discovery of 3-aryl-5-aryl-1,2,4-oxadiazoles as a new series of apoptosis inducers. 2. Identification of more aqueous soluble analogs as potential anticancer agents” (Bioorg Med Chem Lett, 2009).
